In article PMC9042253 (RSC Advances, 2021):

Tests used:
CD38 cyclase = target: T1, CD38 cyclase (Homo sapiens, UniProt P28907); assay: CD38 cyclase activity, fluorometric assay with NGD+ as substrate; format: biochemical; conditions: for remaining activity at 50 µM: read-out: % cyclase activity remaining (50 μM)
T1 sequence (P28907 1-300): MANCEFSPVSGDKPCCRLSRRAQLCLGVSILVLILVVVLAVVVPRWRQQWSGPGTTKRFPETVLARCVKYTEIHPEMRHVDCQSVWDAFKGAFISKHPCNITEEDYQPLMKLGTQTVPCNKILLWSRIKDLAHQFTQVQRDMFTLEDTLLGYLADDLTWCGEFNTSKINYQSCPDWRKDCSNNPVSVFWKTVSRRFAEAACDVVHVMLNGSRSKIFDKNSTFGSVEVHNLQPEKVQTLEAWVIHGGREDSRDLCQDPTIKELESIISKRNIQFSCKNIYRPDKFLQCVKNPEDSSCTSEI

PBMCs = assay: Cytokine analysis; format: cell-based; conditions: 1.0 μM, 48 hours, activated PBMCs from 3 donors
CD38 hydrolase = target: T2, CD38 hydrolase (Homo sapiens, UniProt P28907); assay: CD38 hydrolase activity, fluorometric assay with ε-NAD+ as substrate; format: biochemical; conditions: hydrolase versus cyclase screen
T2 sequence (P28907 1-300): T1 sequence (P28907 1-300)

SMILES	IC50 (CD38 cyclase) [µM]	remaining activity at 50 µM (CD38 cyclase) [%]	increase in IFNγ (in words) (PBMCs)	selectivity between hydrolase and cyclase activity (in words) (CD38 hydrolase)
O=C1NC(=S)S/C1=C\c1ccc2oc3ccccc3c2c1 [Compound 26]	> 100	77.3 ± 22.4	–	–
O=C1NC(=S)S/C1=C\c1ccc(Oc2ccccc2)cc1 [Compound 27]	> 100	88.2 ± 0.6	–	–
O=C1NC(=S)S/C1=C\c1ccc2c(c1)OCCO2 [Compound 28]	> 100	93.9 ± 6.9	–	–
Cc1ccc(-c2cccc(/C=C3\SC(=S)NC3=O)c2)cc1 [Compound 29]	> 100	98.6 ± 4.7	–	–
O=C1NC(=S)S/C1=C\c1ccc2c(c1)-c1ccccc1C2 [Compound 31]	> 100	96.3 ± 6.8	–	–
O=C1NC(=S)S/C1=C\c1ccc(-c2cccc(C(F)(F)F)c2)o1 [Compound 35]	> 100	81.7 ± 9	–	–
COc1ccc2cc(/C=C3\SC(=S)NC3=O)ccc2c1 [Compound 36]	> 100	90 ± 5.4	–	–
Cc1ccc(-c2ccc(/C=C3\SC(=O)NC3=O)cc2)cc1 [Compound 37]	> 100	84.5 ± 2.2	–	–
O=C1NC(=S)S/C1=C\c1ccc(OCc2ccccc2)cc1 [Compound 38]	> 100	84.5 ± 8.5	–	–
O=C1NC(=S)S/C1=C\c1ccc(-c2ccccc2)cc1 [Compound 40]	–	22.1 ± 14.3	–	–
O=C1NC(=S)S/C1=C\c1ccccc1C(F)(F)F [Compound 41]	> 100	81.6 ± 2.4	–	–
O=C1NC(=S)S/C1=C\c1ccccc1OC(F)(F)F [Compound 42]	> 100	87.1 ± 3.4	–	–
O=c1cc(-c2ccc(O)cc2)oc2cc(O)cc(O)c12 [apigenin]	–	–	–	neither compound showed significant selectivity

Further lines, with some results ahead:

IC50 (CD38 cyclase) [µM]	remaining activity at 50 µM (CD38 cyclase) [%]	SMILES	increase in IFNγ (in words) (PBMCs)	selectivity between hydrolase and cyclase activity (in words) (CD38 hydrolase)
11.5	22.1 ± 4	CS(=O)(=O)c1ccc(/C=C2\SC(=S)NC2=O)cc1 [Compound 21]	–	–
4.81	21.7 ± 8.1	O=C1NC(=S)S/C1=C\c1ccc(OC(F)(F)F)cc1 [Compound 22]	–	–
4.65	9.3 ± 0.8	O=C1NC(=S)S/C1=C\c1ccc(C(F)(F)F)cc1 [Compound 23]	more effective than 78c	–
> 100	90.1 ± 3.9	COc1ccc(-c2ccc(/C=C3\SC(=S)N(C)C3=O)cc2)cc1 [Compound 24]	–	–
56	68.3 ± 18.2	O=C1NC(=S)S/C1=C\c1ccc2ncccc2c1 [Compound 25]	–	–
20.9	70.3 ± 40.7	O=C1NC(=S)S/C1=C\c1cc2cc3c(cc2nc1Cl)OCO3 [Compound 30]	–	–
3.15	64.5 ± 4.2	O=C1NC(=S)S/C1=C\c1ccc(-c2ccc(C(F)(F)F)cc2)cc1 [Compound 32]	more effective than 78c	–
10	39.4 ± 4.9	Cc1ccc(-c2ccc(/C=C3\SC(=S)NC3=O)cc2)cc1 [Compound 33]	–	–
56	66.3 ± 23.4	O=C1NC(=S)S/C1=C\c1ccc(-c2ccccn2)cc1 [Compound 34]	–	–
68.6	64.1 ± 7.2	COc1cc(/C=C2\SC(=S)NC2=O)cc(OC)c1OC [Compound 39]	–	–
48.2	29 ± 18.8	Cc1ccc(-c2ccc(/C=C3\SC(=S)N(C)C3=O)cc2)cc1 [Compound 43]	–	–
53.8	55.7 ± 2.3	COc1ccc(-c2ccc(/C=C3\SC(=S)NC3=O)cc2)cc1 [Compound 45]	–	–
